In patent US6737383B1, “Herbicidal oxadiazolidines” (priority 1999, dated 2004):

Experiments:
surinam grass = assay: Test B pre/postemergence surinam grass; type: in vivo, Brachiaria decumbens
Method in brief: (§1)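 Herbicidal effect was estimated by eye on a ten-point control scale after plants spent twelve to sixteen days in a greenhouse following soil or foliar treatment. Foliar sprays targeted plants at one to four leaves; all doses were formulated in a non-phytotoxic solvent with surfactant.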

cocklebur = assay: Test B pre/postemergence cocklebur; type: in vivo, Xanthium strumarium
Method in brief: as §1

corn = assay: Test B pre/postemergence corn; type: in vivo, Zea mays
Method in brief: as §1

crabgrass = assay: Test B pre/postemergence crabgrass; type: in vivo, Digitaria sanguinalis
Method in brief: as §1

giant foxtail = assay: Test B pre/postemergence giant foxtail; type: in vivo, Setaria faberii
Method in brief: as §1

morningglory = assay: Test B pre/postemergence morningglory; type: in vivo, Ipomoea hederacea
Method in brief: as §1

pigweed = assay: Test B pre/postemergence pigweed; type: in vivo, Amaranthus retroflexus
Method in brief: as §1

rape = assay: Test B pre/postemergence rape; type: in vivo, Brassica napus
Method in brief: as §1

soybean = assay: Test B pre/postemergence soybean; type: in vivo, Glycine max
Method in brief: as §1

sugar beet = assay: Test B pre/postemergence sugar beet; type: in vivo, Beta vulgaris
Method in brief: as §1

wild oat = assay: Test B pre/postemergence wild oat; type: in vivo, Avena fatua
Method in brief: as §1

purple nutsedge = assay: Test B pre/postemergence purple nutsedge; type: in vivo, Cyperus rotundus
Method in brief: as §1

rice = assay: Test B flood test rice; type: in vivo, Oryza sativa
Method in brief: (§2)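 Flood test on plants grown to the 2-leaf stage; treated plants kept in greenhouse twelve to sixteen days, then visually rated against controls on a 0 (no effect) to 10 (complete control) scale.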

smallflower flatsedge = assay: Test B flood test smallflower flatsedge; type: in vivo, Cyperus difformis
Method in brief: as §2

duck salad = assay: Test B flood test duck salad; type: in vivo, Heteranthera limosa
Method in brief: as §2

bamyardgrass = assay: Test B flood test barnyardgrass; type: in vivo, Echinochloa crus-galli
Method in brief: as §2

[1] = Postemergence, Rate 62 g/ha, scale 0 to 10, 0 is no effect, 10 is complete control
[2] = Postemergence, Rate 250 g/ha, scale 0 to 10, 0 no effect, 10 complete control
[3] = Preemergence, Rate 31 g/ha, visual rating, scale 0 to 10 (0 no effect, 10 complete control)
[4] = Preemergence, Rate 62 g/ha, scale 0 to 10, 0 is no effect, 10 is complete control
[5] = Preemergence, Rate 125 g/ha, scale 0 to 10 (0 no effect, 10 complete control)
[6] = Preemergence, Rate 250 g/ha, scale of 0 to 10 where 0 is no effect and 10 is complete control
[7] = Rate 31 g/ha, Postemergence, scale 0 to 10
[8] = Rate 125 g/ha, Postemergence, scale 0 to 10, 0 no effect, 10 complete control
[9] = Rate 31 g/ha, Postemergence section (flood test species), scale 0 to 10
[10] = Rate 125 g/ha, Postemergence section (flood test species), scale 0 to 10, 0 no effect, 10 complete control
[11] = flood test, listed under Postemergence, Rate 250 g/ha, scale 0 to 10, 0 no effect, 10 complete control

## CCN(C(=O)n1oc(=O)n(-c2ccc(F)cc2F)c1=O)C1CCCCC1 [Compound 23]
Surinam grass; [1]
  B. signalgrass plant response rating: 0
Surinam grass; [2]
  B. signalgrass plant response rating: 0
Surinam grass; [3]
  B. signalgrass plant response rating: 0
Surinam grass; [4]
  Plant response rating, B. signalgrass: 0
Surinam grass; [5]
  Plant response rating, B. signalgrass: 0
Surinam grass; [6]
  Plant response rating, B. signalgrass: 0
Surinam grass; [7]
  B. signalgrass plant response rating: 0
Surinam grass; [8]
  B. signalgrass plant response rating: 0
cocklebur; [1]
  Cocklebur plant response rating: 0
cocklebur; [2]
  Cocklebur plant response rating: 0
cocklebur; [3]
  Cocklebur plant response rating: 0
cocklebur; [4]
  Plant response rating, Cocklebur: 0
cocklebur; [5]
  Plant response rating, Cocklebur: 0
cocklebur; [7]
  Cocklebur plant response rating: 0
cocklebur; [8]
  Cocklebur plant response rating: 0
corn; [1]
  Corn plant response rating: 0
corn; [2]
  Corn plant response rating: 0
corn; [3]
  Corn plant response rating: 0
corn; [4]
  Plant response rating, Corn: 0
corn; [5]
  Plant response rating, Corn: 0
corn; [6]
  Plant response rating, Corn: 0
corn; [7]
  Corn plant response rating: 0
corn; [8]
  Corn plant response rating: 0
crabgrass; [1]
  Crabgrass plant response rating: 0
crabgrass; [2]
  Crabgrass plant response rating: 6
crabgrass; [3]
  Crabgrass plant response rating: 0
crabgrass; [4]
  Plant response rating, Crabgrass: 3
crabgrass; [5]
  Plant response rating, Crabgrass: 3
crabgrass; [6]
  Plant response rating, Crabgrass: 3
crabgrass; [7]
  Crabgrass plant response rating: 0
crabgrass; [8]
  Crabgrass plant response rating: 1
Giant foxtail; [1]
  Giant foxtail plant response rating: 0
Giant foxtail; [2]
  Giant foxtail plant response rating: 2
Giant foxtail; [3]
  Giant foxtail plant response rating: 1
Giant foxtail; [4]
  Plant response rating, Giant foxtail: 2
Giant foxtail; [5]
  Plant response rating, Giant foxtail: 2
Giant foxtail; [6]
  Plant response rating, Giant foxtail: 3
Giant foxtail; [7]
  Giant foxtail plant response rating: 0
Giant foxtail; [8]
  Giant foxtail plant response rating: 2
morningglory; [1]
  Morningglory plant response rating: 1
morningglory; [2]
  Morningglory plant response rating: 10
morningglory; [3]
  Morningglory plant response rating: 0
morningglory; [4]
  Plant response rating, Morningglory: 0
morningglory; [5]
  Plant response rating, Morningglory: 0
morningglory; [6]
  Plant response rating, Morningglory: 0
morningglory; [7]
  Morningglory plant response rating: 0
morningglory; [8]
  Morningglory plant response rating: 8
pigweed; [1]
  Redroot pigweed plant response rating: 0
pigweed; [2]
  Redroot pigweed plant response rating: 0
pigweed; [3]
  Redroot pigweed plant response rating: 0
pigweed; [4]
  Plant response rating, Redroot pigweed: 0
pigweed; [5]
  Plant response rating, Redroot pigweed: 0
pigweed; [6]
  Plant response rating, Redroot pigweed: 0
pigweed; [7]
  Redroot pigweed plant response rating: 0
pigweed; [8]
  Redroot pigweed plant response rating: 0
rape; [1]
  Rape plant response rating: 0
rape; [2]
  Rape plant response rating: 0
rape; [3]
  Rape plant response rating: 0
rape; [4]
  Plant response rating, Rape: 0
rape; [5]
  Plant response rating, Rape: 0
rape; [6]
  Plant response rating, Rape: 0
rape; [7]
  Rape plant response rating: 0
rape; [8]
  Rape plant response rating: 0
soybean; [1]
  Soybean plant response rating: 3
soybean; [2]
  Soybean plant response rating: 4
soybean; [3]
  Soybean plant response rating: 0
soybean; [4]
  Plant response rating, Soybean: 0
soybean; [5]
  Plant response rating, Soybean: 0
soybean; [6]
  Plant response rating, Soybean: 0
soybean; [8]
  Soybean plant response rating: 3
Sugar beet; [1]
  Sugarbeets plant response rating: 0
Sugar beet; [2]
  Sugarbeets plant response rating: 0
Sugar beet; [3]
  Sugarbeets plant response rating: 0
Sugar beet; [4]
  Plant response rating, Sugarbeets: 0
Sugar beet; [5]
  Plant response rating, Sugarbeets: 0
Sugar beet; [6]
  Plant response rating, Sugarbeets: 0
Sugar beet; [8]
  Sugarbeets plant response rating: 0
Wild oat; [1]
  Wild oats plant response rating: 0
Wild oat; [2]
  Wild oats plant response rating: 0
Wild oat; [3]
  Wild oats plant response rating: 0
Wild oat; [5]
  Plant response rating, Wild oats: 0
Wild oat; [6]
  Plant response rating, Wild oats: 0
Wild oat; [8]
  Wild oats plant response rating: 0
Purple nutsedge; [1]
  Nutsedge plant response rating: 0
Purple nutsedge; [2]
  Nutsedge plant response rating: 0
Purple nutsedge; [3]
  Nutsedge plant response rating: 0
Purple nutsedge; [4]
  Plant response rating, Nutsedge: 0
Purple nutsedge; [5]
  Plant response rating, Nutsedge: 0
Purple nutsedge; [6]
  Plant response rating, Nutsedge: 0
Purple nutsedge; [7]
  Nutsedge plant response rating: 0
Purple nutsedge; [8]
  Nutsedge plant response rating: 0
rice; [1]
  Rice plant response rating: 0
rice; [9]
  Rice plant response rating: 0
rice; [10]
  Rice plant response rating: 0
rice; [11]
  Rice plant response rating: 0
Smallflower flatsedge; [1]
  S. Flatsedge plant response rating: 0
Smallflower flatsedge; [10]
  S. Flatsedge plant response rating: 0
Smallflower flatsedge; [11]
  S. Flatsedge plant response rating: 0
Duck salad; [1]
  Ducksalad plant response rating: 0
Duck salad; [9]
  Ducksalad plant response rating: 0
Duck salad; [10]
  Ducksalad plant response rating: 0
Duck salad; [11]
  Ducksalad plant response rating: 0
bamyardgrass; [1]
  Barnyardgrass plant response rating: 0
bamyardgrass; [9]
  Barnyardgrass plant response rating: 0
bamyardgrass; [10]
  Barnyardgrass plant response rating: 0
bamyardgrass; [11]
  Barnyardgrass plant response rating: 0
